The values below come from patent publication US10105437B2, “Epitopes related to coeliac disease” (BTG International Limited, priority 2004, dated 2018).

The assay concerns PBMC from HLA-DQ2+ coeliac subjects. Description: Interferon gamma ELISPOT, second round wheat gliadin and glutenin 16mer library. The note with it: 16mers pre-treated with transglutaminase, 18 or 28 subjects; for subjects with >70% of maximal peptide-specific response: normalized to individual's maximal response. Format: cell-based, human. An excerpt: 12mer peptides were then identified in which each potential deamidation site could be in position 4, 6 or 7 in the 9mer located within HLA-DQ2 binding groove (HLA-DQ2 anchors at these positions show a preference for glutamate). Candidate 12mer core epitope sequences were then flanked with glycine followed by the N-terminal residue present in the parent gliadin polypeptide and at the C-terminal by the C-terminal residue present in the parent gliadin polypeptide followed by glycine (i.e. GXXXXXXXQXXXXXXG (SEQ ID NO: 1936)). […]
IFNγ ELISpot assays (Mabtech, Sweden) were performed in 96-well plates (MAIP S-45, Millipore) in which each well contained 25 mcl of peptide solution and 100 mcl of PBMC (2-8×10^5/well) in RPMI containing 10% heat inactivated human AB serum. After development and drying, IFNγ ELISpot plates were assessed using the MAIP automated ELISpot plate counter. Data was then analysed according to a novel algorithm (Expectation Maximization: EM) to define and quantify interferon-gamma responses to 9mer sequences contained within the peptide library (see FIG. 3 and below). 9mer peptides were then rationalised according to an algorithm that assumes redundancy in T-cell recognition, the “IterativeCluster” algorithm (see FIG. 4 and below), by allowing groups of amino acids with similar chemical properties at any one position in the 9mer, or for glutamate to replace glutamine at any position (assuming deamidation may have occurred).
All 2nd round 16mer peptides were assessed in at least 18 subjects. […] All 16mers identified for the second round Oxford library also fulfilled the selection criteria for the Melbourne second round library.
The second round peptide library data was analysed according to the “dominance” of peptide responses in the interferon gamma ELISPOT in individual subjects i.e. the percent response of an individual's PBMC to a specific peptide normalized against that individual's maximal peptide-induced response. Sequences of peptides that stimulated at least 40% of the maximal peptide-specific response in at least one subject are shown in Table 1 below. The dataset supports the consistency and “dominance” of peptides conforming to the sequences identified using the first round 20mer peptide library using the Expectation Maximization (EM) algorithm described above.

With “DAIRAIIYSIVLQEQQ [wheat 16mer, second round library]”, the “subjects with 10-40% of maximal peptide-specific response” value is “Nil”, the “subjects with 40-70% of maximal peptide-specific response” value was “Nil”, the “subjects with <10% of maximal peptide-specific response” value is on record as 17/18 and the “subjects with >70% of maximal peptide-specific response” value is “Nil”.
With “G-FFPQPQQQFPQPQQ-G: wheat 16mer, second round library (GFPQQPQQQFPQPQQG; Description of Artificial Sequence: Synthetic gluten peptide)”, the “subjects with 10-40% of maximal peptide-specific response” value is 10/28, the “subjects with 40-70% of maximal peptide-specific response” value was 1/28, the “subjects with <10% of maximal peptide-specific response” value is on record as 17/28 and the “subjects with >70% of maximal peptide-specific response” value was “Nil”.
For “G-FPQLQQPQQPFPQQ-G: wheat 16mer, second round library (GFPQTQQPQQPFPQQG; Description of Artificial Sequence: Synthetic gluten peptide)”, in that order: 1/28, “Nil”, 26/28 and 1/28.
The like results for “G-FPQPQQPQQPFPQQ-G: wheat 16mer, second round library (GFPQPQQPQQSFPQQG; Description of Artificial Sequence: Synthetic gluten peptide)” were, in that order, 3/28, 1/28, 25/28 and “Nil”.
In the case of “G-FPQQPQQQFPQPQQ-G: wheat 16mer, second round library (GQQPFPQPQQQFPQPG; Description of Artificial Sequence: Synthetic gluten peptide)”, the “subjects with 10-40% of maximal peptide-specific response” value is recorded as “Nil”, the “subjects with 40-70% of maximal peptide-specific response” value is on record as 1/28, the “subjects with <10% of maximal peptide-specific response” value is on record as 27/28 and the “subjects with >70% of maximal peptide-specific response” value is reported as “Nil”.
As to “G-IQVDPSGQVQWPQQ-G: wheat 16mer, second round library (GMQADPSGQVQWPQQG; Description of Artificial Sequence: Synthetic gluten peptide)”, the “subjects with 10-40% of maximal peptide-specific response” value was “Nil”, the “subjects with 40-70% of maximal peptide-specific response” value is given as “Nil”, the “subjects with <10% of maximal peptide-specific response” value is given as 17/18 and the “subjects with >70% of maximal peptide-specific response” value was 1/18.
For the substance “G-LQPFPQPQLPFPQP-G: wheat 16mer, second round library (GLQPFPQPQLPFPQPG; Description of Artificial Sequence: Synthetic gluten peptide)”, the “subjects with 10-40% of maximal peptide-specific response” value is 5/28, the “subjects with 40-70% of maximal peptide-specific response” value is reported as 8/28, the “subjects with <10% of maximal peptide-specific response” value is listed as 10/28 and the “subjects with >70% of maximal peptide-specific response” value is on record as 4/28.
For “G-LQPFPQPQLPYLQP-G: wheat 16mer, second round library (GLQPFPQPQLPYLQPG; Description of Artificial Sequence: Synthetic gluten peptide)”, in that order: 12/28, 1/28, 14/28 and 1/28.
For “G-LQPFPQPQLPYPQP-G: wheat 16mer, second round library (GLQPFPQPQLPYPQPG; Description of Artificial Sequence: Synthetic gluten peptide)”, in that order: “Nil”, 8/28, 6/28 and 14/28.
For “G-LQPFPQPQLPYSQP-G: wheat 16mer, second round library (GLQPFPQPQLPYSQPG; Description of Artificial Sequence: Synthetic gluten peptide)”, in that order: 12/28, 3/28, 11/28 and 2/28.
With “G-LQPFPQPQLSYSQP-G: wheat 16mer, second round library (GLQPFPQPQLSYSQPG; Description of Artificial Sequence: Synthetic gluten peptide)”, the “subjects with 10-40% of maximal peptide-specific response” value is 2/28, the “subjects with 40-70% of maximal peptide-specific response” value is given as 1/28, the “subjects with <10% of maximal peptide-specific response” value is listed as 25/28 and the “subjects with >70% of maximal peptide-specific response” value was “Nil”.
The like results for “G-MQVDPSGQVQWPQQ-G: wheat 16mer, second round library (GIQVDPSGQVQWPQQG; Description of Artificial Sequence: Synthetic gluten peptide)” were, in that order, “Nil”, “Nil”, 17/18 and 1/18.
Consider “G-QLPYPQPQLPYPQP-G: wheat 16mer, second round library (GQLPYPQPQLPYPQPG; Description of Artificial Sequence: Synthetic gluten peptide)”, for which the “subjects with 10-40% of maximal peptide-specific response” value is listed as 3/28, the “subjects with 40-70% of maximal peptide-specific response” value is reported as 4/28, the “subjects with <10% of maximal peptide-specific response” value was 3/28 and the “subjects with >70% of maximal peptide-specific response” value is listed as 18/28.
Turning to “G-QPFPLQPQQPFPQQ-G: wheat 16mer, second round library (GQPFPWQPQQPFPQQG; Description of Artificial Sequence: Synthetic gluten peptide)”, the “subjects with 10-40% of maximal peptide-specific response” value was 7/28, the “subjects with 40-70% of maximal peptide-specific response” value is given as 2/28, the “subjects with <10% of maximal peptide-specific response” value was 19/28 and the “subjects with >70% of maximal peptide-specific response” value is recorded as “Nil”.
For “G-QPFPWQPQQPFPQQ-G: wheat 16mer, second round library (GQPTPIQPQQPFPQQG; Description of Artificial Sequence: Synthetic gluten peptide)”, in that order: 8/28, 2/28, 18/28 and “Nil”.
For the substance “G-QQPFPQPQQPFPWQ-G: wheat 16mer, second round library”, the “subjects with 10-40% of maximal peptide-specific response” value was 5/28, the “subjects with 40-70% of maximal peptide-specific response” value was 8/28, the “subjects with <10% of maximal peptide-specific response” value is reported as 6/28 and the “subjects with >70% of maximal peptide-specific response” value is 9/28.
For the substance “G-QQPFPQPQQPFSQQ-G: wheat 16mer, second round library”, the “subjects with 10-40% of maximal peptide-specific response” value is 8/28, the “subjects with 40-70% of maximal peptide-specific response” value was 7/28, the “subjects with <10% of maximal peptide-specific response” value was 9/28 and the “subjects with >70% of maximal peptide-specific response” value is 4/28.
For “G-QQPFPQPQQPIPVQ-G: wheat 16mer, second round library”, in that order: 7/28, 5/28, 8/28 and 8/28.
On to “G-QQPQFSQQQQIPVI-G: wheat 16mer, second round library (PFPQPQQPFPW; Description of Artificial Sequence: Synthetic gluten peptide)”, for which the “subjects with 10-40% of maximal peptide-specific response” value is “Nil”, the “subjects with 40-70% of maximal peptide-specific response” value is reported as 1/28, the “subjects with <10% of maximal peptide-specific response” value is 17/18 and the “subjects with >70% of maximal peptide-specific response” value is on record as “Nil”.
With “G-QQPQQQPQQPFPQQ-G: wheat 16mer, second round library”, the “subjects with 10-40% of maximal peptide-specific response” value is listed as 5/28, the “subjects with 40-70% of maximal peptide-specific response” value is 1/28, the “subjects with <10% of maximal peptide-specific response” value is reported as 22/28 and the “subjects with >70% of maximal peptide-specific response” value is “Nil”.
The like results for “G-QQQFSQPQQQFPQP-G: wheat 16mer, second round library” were, in that order, 7/28, 5/28, 16/28 and “Nil”.
